Results: ChEMBL document CHEMBL1201862, “PubChem BioAssay data set” (2004)
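Growth conditions: 96-well plates. Treatment: test compound, 48 hours, 5 concentrations. Analysis: linear interpolation between bracketing concentrations; unreached endpoints set to highest concentration. Abbreviation: GI50, concentration required for 50% inhibition of growth.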 Active and inactive are the calls of the source. No stated cut-off is given here; in the data, active = GI50 up to about 1.1 µM and inactive = higher. Where a SMILES comes first, the peptide text is derived from it. [ ]: non-standard residue; d: D form. The star is where a group is joined. Phe(2-OMe) = COc1ccccc1C[CH](N)C(=O)O; Cbz = O=C(OCc1ccccc1)*; OBn = c1ccc(CO*)cc1

Columns and labels:
Assay in all cases: NCI-60 cell line screen, 48 h
[1] = test system: SW-620
[2] = test system: TK-10
[3] = test system: RXF 393
[4] = test system: MCF7
[5] = test system: SNB-75
[6] = test system: 786-0
[7] = test system: SK-MEL-28
[8] = test system: A549
[9] = test system: HCT-116
[10] = test system: MDA-MB-435
[11] = test system: SK-OV-3
[12] = test system: OVCAR-8
[13] = test system: NCI-H226
[14] = test system: UACC-257
[15] = test system: SF-539
[16] = test system: HT-29
[17] = test system: EKVX
[18] = test system: NCI-H522

Compound	GI50 [1]	GI50 [2]	GI50 [3]	GI50 [4]	GI50 [5]	GI50 [6]	GI50 [7]	GI50 [8]	GI50 [9]	GI50 [10]	GI50 [11]	GI50 [12]	GI50 [13]	GI50 [14]	GI50 [15]	GI50 [16]	GI50 [17]	GI50 [18]
COc1ccc(/C=C2\N=C(SC)N(C)C2=O)cc1	80.2 µM (inactive)	> 100 µM (inactive)	> 100 µM (inactive)	49.4 µM (inactive)	41.6 µM (inactive)	68.7 µM (inactive)	> 100 µM (inactive)	63.2 µM (inactive)	75.2 µM (inactive)	51.4 µM (inactive)	97.9 µM (inactive)	> 100 µM (inactive)	47.3 µM (inactive)	> 100 µM (inactive)	92 µM (inactive)	46.1 µM (inactive)	–	–
COC1=CC23CCCN2CCc2cc4c(cc2C3C1O)OCO4 (stereo not drawn)	66.1 µM (inactive)	> 100 µM (inactive)	–	48.5 µM (inactive)	78.2 µM (inactive)	44.9 µM (inactive)	> 100 µM (inactive)	36.4 µM (inactive)	44.5 µM (inactive)	> 100 µM (inactive)	27 µM (inactive)	> 100 µM (inactive)	> 100 µM (inactive)	> 100 µM (inactive)	40.6 µM (inactive)	39.4 µM (inactive)	52.5 µM (inactive)	29.2 µM (inactive)
N#Cc1nc(-c2ccsc2)oc1N	> 100 µM (inactive)	> 100 µM (inactive)	> 100 µM (inactive)	> 100 µM (inactive)	57 µM (inactive)	> 100 µM (inactive)	> 100 µM (inactive)	> 100 µM (inactive)	> 100 µM (inactive)	> 100 µM (inactive)	> 100 µM (inactive)	> 100 µM (inactive)	–	> 100 µM (inactive)	–	> 100 µM (inactive)	> 100 µM (inactive)	–
CCOc1snc(C(Cl)(Cl)Cl)c1Cl	30.3 µM (inactive)	23.1 µM (inactive)	13.6 µM (inactive)	25 µM (inactive)	17.7 µM (inactive)	31.7 µM (inactive)	25.5 µM (inactive)	17.5 µM (inactive)	17.3 µM (inactive)	18.3 µM (inactive)	28.6 µM (inactive)	24.4 µM (inactive)	9.33 µM (inactive)	14.3 µM (inactive)	60.5 µM (inactive)	15.5 µM (inactive)	15.8 µM (inactive)	–
CC(CO)(CO)N1C(=O)C2C3c4ccccc4C(c4ccccc43)C2C1=O (stereo not drawn)	> 100 µM (inactive)	> 100 µM (inactive)	–	> 100 µM (inactive)	25.4 µM (inactive)	> 100 µM (inactive)	> 100 µM (inactive)	> 100 µM (inactive)	> 100 µM (inactive)	> 100 µM (inactive)	> 100 µM (inactive)	> 100 µM (inactive)	> 100 µM (inactive)	> 100 µM (inactive)	> 100 µM (inactive)	> 100 µM (inactive)	–	> 100 µM (inactive)
Cc1ccccc1NC(=O)C(=O)Cc1cnc2ccccc2n1	> 100 µM (inactive)	> 100 µM (inactive)	–	> 100 µM (inactive)	–	> 100 µM (inactive)	> 100 µM (inactive)	> 100 µM (inactive)	> 100 µM (inactive)	> 100 µM (inactive)	> 100 µM (inactive)	> 100 µM (inactive)	> 100 µM (inactive)	> 100 µM (inactive)	> 100 µM (inactive)	> 100 µM (inactive)	> 100 µM (inactive)	> 100 µM (inactive)
C=C(C1=CC(=O)C(C)(C)O1)[C@@H]1CC=C([C@@H]2CC[C@H]3[C@@]2(C)CC[C@H]2C(C)(C)C(=O)[C@H](O)C[C@]32C)[C@H](O)O1	1.66 µM (inactive)	1.19 µM (inactive)	1.81 µM (inactive)	0.546 µM (active)	10.6 µM (inactive)	0.273 µM (active)	4.42 µM (inactive)	13.6 µM (inactive)	1.63 µM (inactive)	2.49 µM (inactive)	14.6 µM (inactive)	2.07 µM (inactive)	17.5 µM (inactive)	1.97 µM (inactive)	1.34 µM (inactive)	1.87 µM (inactive)	10.1 µM (inactive)	–
CCN(CC)CCCC(C)NC(=O)c1cc(-c2nccn2C)nc2ccc(C)cc12 (stereo not drawn)	> 100 µM (inactive)	> 100 µM (inactive)	> 100 µM (inactive)	64.7 µM (inactive)	> 100 µM (inactive)	> 100 µM (inactive)	> 100 µM (inactive)	> 100 µM (inactive)	> 100 µM (inactive)	> 100 µM (inactive)	–	> 100 µM (inactive)	> 100 µM (inactive)	> 100 µM (inactive)	> 100 µM (inactive)	> 100 µM (inactive)	> 100 µM (inactive)	–
OCCN=C1c2ccccc2C2C(c3ccccc31)C1c3ccccc3C(=NCCO)c3ccccc3C21 (stereo not drawn)	26.1 µM (inactive)	26.4 µM (inactive)	22.8 µM (inactive)	20.3 µM (inactive)	20.4 µM (inactive)	28.2 µM (inactive)	17.5 µM (inactive)	20.6 µM (inactive)	15.5 µM (inactive)	18 µM (inactive)	22.2 µM (inactive)	26.9 µM (inactive)	< 0.01 µM (active)	24.7 µM (inactive)	18 µM (inactive)	15.4 µM (inactive)	35.9 µM (inactive)	–
COc1ccc(-n2c3c(c4cc(O)ccc42)Cc2ccccc2C3=O)cc1	57 µM (inactive)	58.7 µM (inactive)	< 0.01 µM (active)	9.16 µM (inactive)	2.19 µM (inactive)	50.2 µM (inactive)	28.1 µM (inactive)	35.6 µM (inactive)	27.6 µM (inactive)	64.6 µM (inactive)	16 µM (inactive)	48 µM (inactive)	63.7 µM (inactive)	> 100 µM (inactive)	34.9 µM (inactive)	53.2 µM (inactive)	–	–
O=C(Cn1c2ccc(Br)cc2c2nc3ccccc3nc21)NC1CCCCC1	> 100 µM (inactive)	> 100 µM (inactive)	> 100 µM (inactive)	–	36.1 µM (inactive)	> 100 µM (inactive)	81.1 µM (inactive)	> 100 µM (inactive)	> 100 µM (inactive)	> 100 µM (inactive)	> 100 µM (inactive)	> 100 µM (inactive)	> 100 µM (inactive)	> 100 µM (inactive)	–	> 100 µM (inactive)	–	> 100 µM (inactive)
C=C(C)CCN(C(=O)OC(C)(C)C)c1cc(C(C)C)co1	56 µM (inactive)	> 100 µM (inactive)	–	40.4 µM (inactive)	–	> 100 µM (inactive)	> 100 µM (inactive)	48.4 µM (inactive)	47.9 µM (inactive)	96.2 µM (inactive)	> 100 µM (inactive)	37.5 µM (inactive)	57.7 µM (inactive)	34 µM (inactive)	> 100 µM (inactive)	45.3 µM (inactive)	45.1 µM (inactive)	–
O=c1[nH]nc(Cc2ccccc2)n1/N=C/c1cccs1	> 100 µM (inactive)	–	35.2 µM (inactive)	> 100 µM (inactive)	> 100 µM (inactive)	> 100 µM (inactive)	> 100 µM (inactive)	> 100 µM (inactive)	> 100 µM (inactive)	> 100 µM (inactive)	> 100 µM (inactive)	> 100 µM (inactive)	> 100 µM (inactive)	> 100 µM (inactive)	> 100 µM (inactive)	> 100 µM (inactive)	> 100 µM (inactive)	–
NS(=O)(=O)c1nnc(NS(=O)(=O)c2ccccc2C(=O)O)s1	> 100 µM (inactive)	> 100 µM (inactive)	> 100 µM (inactive)	> 100 µM (inactive)	–	> 100 µM (inactive)	> 100 µM (inactive)	> 100 µM (inactive)	> 100 µM (inactive)	> 100 µM (inactive)	> 100 µM (inactive)	> 100 µM (inactive)	> 100 µM (inactive)	> 100 µM (inactive)	–	> 100 µM (inactive)	> 100 µM (inactive)	> 100 µM (inactive)
N=C(N)NCCCC(NC(=O)c1cccc2c(=O)c3ccccc3[nH]c12)C(=O)O (stereo not drawn)	> 100 µM (inactive)	> 100 µM (inactive)	–	> 100 µM (inactive)	> 100 µM (inactive)	> 100 µM (inactive)	> 100 µM (inactive)	> 100 µM (inactive)	> 100 µM (inactive)	> 100 µM (inactive)	> 100 µM (inactive)	> 100 µM (inactive)	> 100 µM (inactive)	–	–	> 100 µM (inactive)	> 100 µM (inactive)	> 100 µM (inactive)
O=C1Cc2c([nH]c3ccc(C(=O)O)cc23)-c2ccccc2N1	> 100 µM (inactive)	> 100 µM (inactive)	–	> 100 µM (inactive)	–	> 100 µM (inactive)	> 100 µM (inactive)	> 100 µM (inactive)	> 100 µM (inactive)	> 100 µM (inactive)	> 100 µM (inactive)	> 100 µM (inactive)	> 100 µM (inactive)	> 100 µM (inactive)	> 100 µM (inactive)	84.9 µM (inactive)	–	–
COC(=O)C(Cc1ccccc1OC)NC(=O)C(CC(=O)OCc1ccccc1)NC(=O)OCc1ccccc1 (stereo not drawn) (Cbz-Asp(OBn)-[Phe(2-OMe)]-OMe; configuration not given here)	> 100 µM (inactive)	> 100 µM (inactive)	70.8 µM (inactive)	54 µM (inactive)	> 100 µM (inactive)	> 100 µM (inactive)	38.6 µM (inactive)	60.3 µM (inactive)	55.5 µM (inactive)	–	–	> 100 µM (inactive)	> 100 µM (inactive)	> 100 µM (inactive)	–	65.3 µM (inactive)	> 100 µM (inactive)	–
